From patent US4207326A, “Antimicrobial quaternary pyrazole derivatives” (Cilag-Chemie A.G., priority 1979, dated 1980)
Where two headings read alike, the source gives them in different places.

What was measured:
M. canis = assay: Antifungal activity: Minimum Inhibitory Concentration; type: cell-based, Microsporum canis NCPF 351; conditions: M. canis, 27° C., one week; for MIC: Microsporum canis, read-out: Minimum Inhibitory Concentration
Description: (§1) The antimicrobial activity was determined by inoculation of the test microorganism into suitable growth media containing solutions of the compounds at concentrations of 100, 50, 10, 5, 1.0, 0.5 and 0.1 μg/ml. The reference antibiotics used were Gentamicin for the antibacterial tests and Amphotericin B for the antimycotic and antifungal tests. After incubation the antimicrobial activity was recorded as the Minimal Inhibitory Concentration (M.I.C.), i.e., the lowest concentration preventing macroscopically visible growth, for each test compound against each organism.
(§2) An initial solution of each formula (I) compound to be tested in sterile distilled water was prepared at a concentration of 1000 μg/ml. With appropriate dilutions using sterile distilled water, additional solutions were prepared at concentrations of 500, 100, 50, 10, 5 and 1 μg/ml.
(§3) The A. corymbifera, A. fumigatus, S. schenkii, T. rubrum, T. mentagrophytes, M. canis and P. verrucosa strains were all maintained on Sabouraud-Dextrose Agar (Oxoid CM 41) by incubating for 14 days at 27° C. To prepare the inocula 30 ml volumes of Sabouraud-Liquid medium (Oxoid CM 147) were inoculated from the agar cultures and incubated at 27° C. until heavy uniform growth resulted. The mycelial growth was then broken up by shaking with glass beads.
(§4) 1 Ml aliquots were removed from each of the cultures for the purpose of making viable counts and the cultures were then held at 4° C. The viable counts were made by preparing serial ten-fold dilutions of the cultures in sterile physiological saline and spreading on plates of Sabouraud-Dextrose Agar (Oxoid CM 41) which were then incubated at 27° C. for 14 days. When the viable counts had confirmed that each of the inocula contained approximately 10^6 colony forming units (C.F.U.) per ml the cultures were withdrawn from the refrigerator and used as the inocula for the tests.
(§5) (c) For the tests on each of the remaining seven strains and each of the test and reference compounds, a series of 8 tubes containing 4.5 ml volumes of Sabouraud-Liquid Medium (Oxoid CM 147) were prepared. To 7 of these were added 0.5 ml volumes of the final solutions of the test compounds, giving final concentrations in the broths of 100, 50, 10, 5, 1.0, 0.5 and 0.1 μg/ml. To the eighth tube in each series was added 0.5 ml of the solvent used and diluted as for the preparation of the 500 μg/ml solution of the compound. This tube was used as a growth control. The tubes were then inoculated with 0.1 ml aliquots of the inocula prepared as in "(b) Fungi" above. The tubes were then incubated at 27° C. with continuous shaking for a period of one week. The tubes were then examined for evidence of growth as shown by the presence of mycelial growth in the medium and the lowest concentration of the test compound which prevented fungal growth was recorded as the Minimal Inhibitory Concentration. This test procedure was carried out on two separate days.

C. albicans = assay: Antimycotic activity: Minimum Inhibitory Concentration; type: cell-based, Candida albicans ATCC 10231; conditions: for MIC: Candida albicans
Description: as §1, §2
(§6) The two species, C. albicans and C. tropicalis, were maintained on Sabouraud-Dextrose Agar (Oxoid CM41) and cultures for the preparation of the inoculum were incubated on this agar at 37° C. for 48 hours. 4.5 Ml volumes of citric acid-phosphate buffer pH 5.5 plus Yeast-Nitrogen Base (Difco 0392-15) were then inoculated from the agar cultures and incubated at 37° C. for 48 hours. 0.1 Ml aliquots of these cultures were then added to 100 ml volumes of sterile physiological saline to give the final inocula.
(§7) (b) For the tests on each of the C. albicans, C. tropicalis and C. neoformans strains and each of the test and reference compounds, a series of 8 tubes containing 4.5 ml volumes of citric acid-phosphate buffer pH 5.5 plus Yeast-Nitrogen Base (Difco 0392-15) were prepared. To 7 of these were added 0.5 ml volumes of the final solutions of the test compounds, giving final concentrations in the broths of 100, 50, 10, 5, 1.0, 0.5 and 0.1 μg/ml. To the eighth tube in each series was added 0.5 ml of the solvent used and diluted as for the preparation of the 1000 μg/ml solution of the compound. This tube was used as the growth control. The tubes were then inoculated with 0.1 ml aliquots of the inocula prepared as in "(b) Fungi" above. The tubes inoculated with the C. albicans and C. tropicalis were inoculated at 37° C. for 72 hours and the tubes inoculated with the C. neoformans straim were incubated at 30° C. for 72 hours. […] The tubes were then examined for evidence of growth as shown by turbidity of the medium and the lowest concentration of the test compound which prevented fungal growth was recorded as the Minimal Inhibitory Concentration. This test procedure was carried out on two separate days.

E. coli = assay: Antibacterial activity: Minimum Inhibitory Concentration; type: cell-based, Escherichia coli ATCC 8739; conditions: Escherichia coli, 24 hours
Description: as §1, §2
(§8) They were cultured and maintained on Tryptone Soy Agar (Oxoid CM 131), with the addition of 10% horse blood for the S. pyogenes.
(§9) To prepare the organisms as inocula for the test, slopes of this medium were streaked with the organisms and incubated at 37° C. for 24 hours. 4.5 Ml volumes of Brian-Heart Infusion Broth (Oxoid CM 225) were then inoculated with a platinum loop from the agar slope cultures and incubated for 24 hours at 37° C. The final inocula were then prepared by adding 0.1 ml aliquots of the Brain-Heart Infusion Broth cultures to 100 ml volumes of sterile physiological saline.
(§10) (a) For the test on each of the bacterial strains and each of the test and reference compounds, a series of 8 tubes containing 4.5 ml volumes of Brain-Heart Infusion Broth (Oxoid CM 225) were prepared. To 7 of these were added 0.5 ml volumes of the final solutions of the test compouns, giving final concentrations in the broths of 100, 50, 10, 5, 1.0, 0.5 and 0.1 μg/ml. To the eighth tube in each series was added 0.5 ml of the solvent used and diluted as for the preparation of the 1000 μg/ml solution of the compound. This tube was used as the growth control. The tubes were inoculated with 0.02 ml aliquots of the inocula prepared in accordance with "(a) Bacteria" above, and incubated at 37° C. for 24 hours. The tubes were then examined for evidence of bacterial growth as shown by turbidity of the medium and the lowest concentration of the test compound which prevented bacterial growth was recorded as the Minimal Inhibitory Concentration. This test procedure was carried out on two separate days.

S. aureus = assay: as above; type: cell-based, Staphylococcus aureus ATCC 6538; conditions: Staphylococcus aureus, 24 hours
Description: as §1, §2, §8, §9, §10

C. tropicalis = assay: Antimycotic activity: Minimum Inhibitory Concentration; type: cell-based, Candida tropicalis NCPF 3111; conditions: Candida tropicalis, pH 5.5, 37° C., 72 hours
Description: as §1, §2, §6, §7

A. corymbifera = assay: Antifungal activity: Minimum Inhibitory Concentration; type: cell-based, Absidia corymbifera NCPF 2001; conditions: for MIC: Lichtheimia corymbifera, read-out: Minimum Inhibitory Concentration
Description: as §1, §2
A. corymbifera NCPF 2001
as §3, §4, §5

A. fumigatus = assay: as above; type: cell-based, Aspergillus fimigatus (A. fumigatus) NCPF 2140; conditions: A. fumigatus, 27° C., one week; for MIC: Aspergillus fumigatus, read-out: Minimum Inhibitory Concentration
Description: as §1, §2, §3, §4, §5

[1] = A. corymbifera, Day 2, 27° C., one week
[2] = pH 5.5, C. albicans, Day 1, pH 5.5, 37° C., 72 hours, read-out: Minimum Inhibitory Concentrations
[3] = pH 5.5, C. albicans, Day 2, pH 5.5, 37° C., 72 hours, read-out: Minimum Inhibitory Concentrations
[4] = pH 5.5, C. tropicalis, Day 1, read-out: Minimum Inhibitory Concentrations
[5] = pH 5.5, C. tropicalis, Day 2, read-out: Minimum Inhibitory Concentrations
[6] = A. corymbifera, Day 1, 27° C., one week

## CCCCCCCCCCCCCCCC[n+]1c(C)cc(C)n1C.Cc1ccc(S(=O)(=O)[O-])cc1 [Example 6-C, 1-hexadecyl-2,3,5-trimethylpyrazolium p-toluene sulfonate]
M. canis; Day 2
  Minimum Inhibitory Concentration: 5 µg/mL
C. albicans; C. albicans, Day 2, pH 5.5, 37° C., 72 hours
  Minimum Inhibitory Concentrations: 5 µg/mL
C. albicans; pH 5.5, read-out: Minimum Inhibitory Concentrations
  MIC: 5 µg/mL
E. coli; Day 1, 37° C.
  MIC: 10 µg/mL
E. coli; Day 2, 37° C.
  MIC: 10 µg/mL
S. aureus; Day 1, 37° C.
  MIC: 0.5 µg/mL
S. aureus; Day 2, 37° C.
  MIC: 0.5 µg/mL
C. tropicalis; pH 5.5, read-out: Minimum Inhibitory Concentrations, C. tropicalis, Day 1
  MIC: 5 µg/mL
A. corymbifera; [1]
  Minimum Inhibitory Concentration: 10 µg/mL
A. corymbifera
  MIC: 10 µg/mL
A. fumigatus; Day 2
  Minimum Inhibitory Concentration: 5 µg/mL

## CCCCCCCCCCCCCC[n+]1c(C)cc(C)n1Cc1ccc([N+](=O)[O-])cc1.[Br-] [Example 6-D, 3,5-dimethyl-2(4-nitrobenzyl)-1-tetradecyl-pyrazolium bromide]
M. canis; Day 1
  MIC: 10 µg/mL
M. canis; Day 2
  MIC: 5 µg/mL
C. albicans; [2]
  MIC: 10 µg/mL
C. albicans; [3]
  MIC: 5 µg/mL
E. coli; Day 1, 37° C.
  MIC: 50 µg/mL
E. coli; Day 2, 37° C.
  MIC: 100 µg/mL
S. aureus; Day 1, 37° C.
  MIC: 1 µg/mL
S. aureus; Day 2, 37° C.
  MIC: 0.5 µg/mL
C. tropicalis; [4]
  MIC: 5 µg/mL
C. tropicalis; [5]
  MIC: 5 µg/mL
A. corymbifera; [6]
  MIC: 50 µg/mL
A. corymbifera; [1]
  MIC: 50 µg/mL
A. fumigatus; Day 1
  MIC: 50 µg/mL
A. fumigatus; Day 2
  MIC: 50 µg/mL

## CCCCCCCCCCCC[n+]1c(C)cc(C)n1Cc1ccc(Cl)cc1.[Br-] [Example 6-E, 2-(p-chlorobenzyl)-3,5-dimethyl-1-dodecyl-pyrazolium bromide]
M. canis; Day 1
  MIC: 1 µg/mL
M. canis; Day 2
  MIC: 5 µg/mL
C. albicans; [2]
  MIC: 1 µg/mL
C. albicans; [3]
  MIC: 5 µg/mL
E. coli; Day 1, 37° C.
  MIC: 10 µg/mL
E. coli; Day 2, 37° C.
  MIC: 10 µg/mL
S. aureus; Day 1, 37° C.
  MIC: 0.5 µg/mL
S. aureus; Day 2, 37° C.
  MIC: 0.5 µg/mL
C. tropicalis; [4]
  MIC: 5 µg/mL
C. tropicalis; [5]
  MIC: 1 µg/mL
A. corymbifera; [6]
  MIC: 10 µg/mL
A. corymbifera; [1]
  MIC: 50 µg/mL
A. fumigatus; Day 1
  MIC: 10 µg/mL
A. fumigatus; Day 2
  MIC: 5 µg/mL

## C=CCn1c(C)cc(C)[n+]1CCCCCCCCCCCCCCCC.[Br-] [Example 7, 2-allyl-3,5-dimethyl-1-hexadecyl-pyrazoliumbromide]
M. canis; Day 1
  MIC: 5 µg/mL
M. canis; Day 2
  MIC: 10 µg/mL
C. albicans; [2]
  MIC: 5 µg/mL
C. albicans; [3]
  MIC: 1 µg/mL
E. coli; Day 1, 37° C.
  MIC: 10 µg/mL
E. coli; Day 2, 37° C.
  MIC: 5 µg/mL
S. aureus; Day 1, 37° C.
  MIC: 0.5 µg/mL
S. aureus; Day 2, 37° C.
  MIC: 0.5 µg/mL
C. tropicalis; [4]
  MIC: 0.5 µg/mL
C. tropicalis; [5]
  MIC: 0.5 µg/mL
A. corymbifera; [6]
  MIC: 5 µg/mL
A. corymbifera; [1]
  MIC: 5 µg/mL
A. fumigatus; Day 1
  MIC: 10 µg/mL
A. fumigatus; Day 2
  MIC: 50 µg/mL
